From PMC4389562, “Antigiardial activity of novel triazolyl-quinolone-based chalcone derivatives: when oxygen makes the difference” (Frontiers in Microbiology, 2015)
Read-outs that look alike come from different tables or passages of the source.

Tests used:
[1] = system: Giardia intestinalis trophozoites; test: Drug susceptibility of Giardia trophozoites, ATP level by luminescence (BacTiter-Glo), 48 h incubation, anaerobic or microaerobic; assay type: cell-based, Giardia intestinalis strain WB clone C6; conditions: for IC50: Giardia duodenalis, 48 h, 37 °C, ATP level; for selectivity ratio at 48 h: human (Caco-2 cells) versus Giardia intestinalis, Caco-2, SI = IC50,Caco-2/IC50,Giardia; for fold more efficient than MTZ against Giardia: anaerobic conditions, relative to MTZ
Procedure: Trophozoites of G. intestinalis strain WB clone C6 (ATCC No. 50803TM) were cultured axenically at 37^∘C in 25-cm^2 flasks containing Diamond's TYI-S-33 medium supplemented with 10% bovine calf serum, 1 mg/mL bovine bile, 0.1 g/L streptomycin and 100 U/mL penicillin. Typically, 50 ml medium was inoculated with 25 × 10^6 cells and after 2 days cells were harvested by chilling the flasks on ice for 30 min for drug susceptibility assays. […] The assays were performed following the procedure described in [Bahadur et al. (2014)], using sterile 96-well white clear-bottom plates. […] Each drug concentration was tested in at least six replicates. MTZ was used as an internal positive control in the assay. The microtiter plates were then incubated at 37^∘C under anaerobic or microaerobic conditions, ensured by the Anaerocult® A or the Anaerocult® […] (Merck), respectively. […] Following 48 h incubation with the compound to be tested, 100 μL of the BacTiter-Glo^TM Microbial Cell Viability Assay System reagent (Promega) was added to each well for one-step lysis and ATP level detection. Plates were then incubated at room temperature for 15 min and ATP levels finally detected by luminescence on a plate reader (Wallac Victor3 1420 Multilabel Counter, PerkinElmer). Luminometric data were calibrated using ATP standard curves and normalized to the ATP level measured in control DMSO-treated cells (taken as 100%). The measured ATP level percentage was plotted as a function of the compound concentration and the half-maximal inhibitory concentration (IC50) was obtained by fitting the resulting titration profile to the Hill equation ([Goutelle et al., 2008]). The selectivity index (SI) of the compounds was then calculated as the ratio between the IC50 value measured on human cells over the value determined on Giardia trophozoites (SI = IC50,Caco-2/IC50,Giardia). The antigiardial activity of the novel compounds 23-67 was tested under both anaerobic and microaerobic conditions. According to ([Dunn et al., 2010]; [Bahadur et al., 2014]), susceptibility of Giardia trophozoites to increasing concentrations of each compound was assessed based on ATP level determination by luminescence. Dose-response curves for each compound were obtained after 48 h-incubation and compared to the data collected under identical conditions with MTZ, the drug of choice for treatment of giardiasis. […] Typical dose-response curves are shown in Figure 2, whereas the IC50 values measured for the synthetic compounds and MTZ under anaerobic and microaerobic conditions are reported in Table 1. […] Under anaerobic conditions, 18 out of the 45 synthetic compounds were as effective as MTZ or more under identical conditions (see Table 1).

Caco-2 cells = test: Counter-screen on Caco-2 cells, ATP level by luminescence (ATPlite), 48 h incubation; assay type: cell-based, human; conditions: Homo sapiens, Caco-2, 48 h, atmospheric O2, 5% CO2, 48 h, 37 °C
Procedure: Trophozoites of G. intestinalis strain WB clone C6 (ATCC No. 50803TM) were cultured axenically at 37^∘C in 25-cm^2 flasks containing Diamond’s TYI-S-33 medium supplemented with 10% bovine calf serum, 1 mg/mL bovine bile, 0.1 g/L streptomycin and 100 U/mL penicillin. […] Human epithelial colorectal adenocarcinoma (Caco-2) cells were grown in 25-cm^2 flasks in EMEM supplemented with 1% (v/v) non-essential amino acids, 2 mM glutamine, 5% (v/v) fetal bovine serum, 0.1 g/L streptomycin, and 100 U/mL penicillin.
Cells were detached with 0.5% trypsin-EDTA and seeded in sterile 96-well white clear-bottom plates at the same density of Giardia trophozoites and at increasing concentration of the compound to be tested, as described above. The assays were carried out exactly as reported for the Giardia trophozoites, except that the plates were incubated (still at 37^∘C) at atmospheric O2 level, 5% CO2, and 95% humidity. Each drug concentration was tested in at least seven replicates. MTZ was used as an internal […] control in the assay. Following 48 h incubation with each compound, according to the manufacturer instructions, 100 μL of the ATPlite^TM luminescence assay system (Perkin Elmer) was added to each well for one-step lysis and ATP level detection by luminescence.
Luminometric data were calibrated using ATP standard curves and normalized to the ATP level measured in control DMSO-treated cells (taken as 100%). The measured ATP level percentage was plotted as a function of the compound concentration and the half-maximal inhibitory concentration (IC50) was obtained by fitting the resulting titration profile to the Hill equation ([Goutelle et al., 2008]). The selectivity index (SI) of the compounds was then calculated as the ratio between the IC50 value measured on human cells over the value determined on Giardia trophozoites (SI = IC50,Caco-2/IC50,Giardia).
Selectivity of the newly synthesized compounds toward Giardia was assessed by running a counter-screen on human epithelial Caco-2 cells. […] This allowed us to calculate the compounds SI, defined as the ratio between the IC50 value measured on human cells over the value determined on Giardia trophozoites.

[2] = anaerobic conditions (Anaerocult A), read-out: Giardia (anaerobiosis) IC50
[3] = microaerobic conditions (~5% O2, Anaerocult C), read-out: Giardia (microaerobiosis) IC50
[4] = Giardia under anaerobiosis, read-out: Selectivity (IC50,Caco/IC50,Giardia) Anaerobiosis
[5] = Giardia under microaerobiosis, read-out: Selectivity (IC50,Caco/IC50,Giardia) Microaerobiosis

SMILES	melting point [°C]	IC50 [1, 2] [µM]	IC50 [1, 3] [µM]	selectivity ratio at 48 h [1, 4]	selectivity ratio at 48 h [1, 5]	IC50 (Caco-2 cells) [µM]	fold more efficient than MTZ against Giardia [1]
Cc1ccc(C(=O)/C=C/c2cc3ccccc3n(Cc3cn(-c4ccc(C)cc4)nn3)c2=O)cc1 [Compound 37]	202 to 204	6.3	1.6	≥ 7	≥ 31	≥ 50	
COc1ccc(C(=O)/C=C/c2cc3ccccc3n(Cc3cn(-c4ccc(C)cc4)nn3)c2=O)cc1 [Compound 40]	182 to 184	≥ 15	2.4		≥ 25	≥ 60	
O=C(/C=C/c1cc2ccccc2n(Cc2cn(-c3ccc(F)cc3)nn2)c1=O)c1cccc(F)c1 [Compound 42]	203 to 205	3.3	0.7	2.9	13.7	9.6	
O=C(/C=C/c1cc2ccccc2n(Cc2cn(-c3ccc(F)cc3)nn2)c1=O)c1ccc(F)cc1 [Compound 43]	202 to 204	1.2	0.3	5.8	23.3	7	three to fourfold
O=C(/C=C/c1cc2ccccc2n(Cc2cn(-c3ccc(F)cc3)nn2)c1=O)c1ccc(Cl)cc1 [Compound 44]	190 to 192	1.5	1	4.8	7.2	7.2	
O=C(/C=C/c1cc2ccccc2n(Cc2cn(-c3ccc(F)cc3)nn2)c1=O)c1ccc(Br)cc1 [Compound 45]	238 to 240	1.1	0.5	15.2	33.4	16.7	three to fourfold
COc1ccccc1C(=O)/C=C/c1cc2ccccc2n(Cc2cn(-c3ccc(F)cc3)nn2)c1=O [Compound 47]	132 to 134	2.7	0.3	≥ 7	≥ 66	≥ 20	
COc1cccc(C(=O)/C=C/c2cc3ccccc3n(Cc3cn(-c4ccc(F)cc4)nn3)c2=O)c1 [Compound 48]	220 to 222	7	1.6	≥ 8	≥ 37	≥ 60	
O=C(/C=C/c1cc2ccccc2n(Cc2cn(-c3ccc(Cl)cc3)nn2)c1=O)c1ccccc1F [Compound 50]	242 to 244	4.7	0.9	≥ 10	≥ 55	≥ 50	
O=C(/C=C/c1cc2ccccc2n(Cc2cn(-c3ccc(Cl)cc3)nn2)c1=O)c1cccc(F)c1 [Compound 51]	190 to 192	10	0.9	≥ 10	≥ 111	≥ 100	
O=C(/C=C/c1cc2ccccc2n(Cc2cn(-c3ccc(Cl)cc3)nn2)c1=O)c1ccc(F)cc1 [Compound 52]	216 to 218	8.9	1.2	2.7	19.9	23.9	
O=C(/C=C/c1cc2ccccc2n(Cc2cn(-c3ccc(Cl)cc3)nn2)c1=O)c1ccc(Cl)cc1 [Compound 53]	180 to 182	9	1.1	≥ 3	≥ 27	≥ 30	
Cc1ccc(C(=O)/C=C/c2cc3ccccc3n(Cc3cn(-c4ccc(Cl)cc4)nn3)c2=O)cc1 [Compound 55]	217 to 219	8.7	1.1	2.3	18.2	20	
COc1ccccc1C(=O)/C=C/c1cc2ccccc2n(Cc2cn(-c3ccc(Cl)cc3)nn2)c1=O [Compound 56]	230 to 232	3.2	0.6	2.6	14	8.4	
COc1cccc(C(=O)/C=C/c2cc3ccccc3n(Cc3cn(-c4ccc(Cl)cc4)nn3)c2=O)c1 [Compound 57]	215 to 217	6.6	1.1	2.2	11.3	14.7	
COc1ccc(C(=O)/C=C/c2cc3ccccc3n(Cc3cn(-c4ccc(Cl)cc4)nn3)c2=O)cc1 [Compound 58]	210 to 212	≥ 100	≥ 30	≤ 0.2	≤ 0.7	19.7	
O=C(/C=C/c1cc2ccccc2n(Cc2cn(-c3ccccc3)nn2)c1=O)c1ccccc1F [Compound 59]	172 to 174	1.9	0.4	5.9	28	11.2	
O=C(/C=C/c1cc2ccccc2n(Cc2cn(-c3ccccc3)nn2)c1=O)c1cccc(F)c1 [Compound 60]	180 to 182	3.5	0.7	≥ 14	≥ 71	≥ 50	
O=C(/C=C/c1cc2ccccc2n(Cc2cn(-c3ccccc3)nn2)c1=O)c1ccc(F)cc1 [Compound 61]	202 to 204	5.3	0.8	3.4	22.8	18.2	
O=C(/C=C/c1cc2ccccc2n(Cc2cn(-c3ccccc3)nn2)c1=O)c1ccc(Cl)cc1 [Compound 62]	216 to 218	2.1	0.7	2.8	8.4	5.9	
Cc1ccc(C(=O)/C=C/c2cc3ccccc3n(Cc3cn(-c4ccccc4)nn3)c2=O)cc1 [Compound 64]	216 to 218	2.8	0.5	6.4	35.6	17.8	
